The values below are quoted from earlier work in US11737981B2, “Cellulosic polymer nanoparticles and methods of forming them” (The Trustees of Princeton University, priority 2017, dated 2023).

Values after ≈ are worked out from the molar mass of the structure shown.

For `CCC(C)n1ncn(-c2ccc(N3CCN(c4ccc(OCC5COC(Cn6cncn6)(c6ccc(Cl)cc6Cl)O5)cc4)CC3)cc2)c1=O` (stereo not drawn) [Itraconazole], the solubility in water was around 9.6 µg/mL (≈ 13.6 µM).

As for `CCCCN(CCCC)CC(O)c1cc(Cl)cc2c1-c1ccc(Cl)cc1/C2=C/c1ccc(Cl)cc1` (stereo not drawn) [Lumefantrine], the solubility in water entry is given as “about 0.031 mg/L”.

As for artefenomel mesylate [OZ439 mesylate], the solubility in water result is reported as “about 0.47 mg/L”.
